These results are taken from PMC6943434, “Novel Homo-Bivalent and Polyvalent Compounds Based on Ligustrazine and Heterocyclic Ring as Anticancer Agents” (Molecules, 2019).

For assay [1], the system named is HeLa (cervical cancer cell line). In words: MTT cell viability assay, HeLa. The format is cell-based. The following applies: Homo sapiens, 48 h, read-out: Antiproliferative Activity IC50 ± SEM, HeLa. The procedure:
(§1) The tested cells were obtained from Shanghai Institute of Biochemistry and Cell Biology of the Chinese Academy of Sciences (Shanghai, China). HeLa and Hep G2 cell lines were cultured in Dulbecco’s modified Eagle’s medium (DMEM; gibco, Life Technologies, Carlsbad, CA, USA) supplemented with 10% fetal bovine serum (FBS; Biological Industries), 100 U/mL penicillin-streptomycin (PS; gibco, Life Technologies, Carlsbad, CA, USA). MCF-7 and A549 cell lines were maintained in RPMI-1640 media (gibco, Life Technologies, Carlsbad, CA, USA) supplemented with 10% FBS and 100 U/mL PS. FaDu cell lines were cultured in minimum essential medium (MEM; Gibco, Life Technologies, Carlsbad, CA, USA) supplemented with 10% FBS and 100 U/mL PS. MCF 10A cell lines were maintained in Mammary MEGM kit (Lonza/Clonetics) supplemented with 100 ng/mL cholera toxin (Sigma, Shanghai, China). Cell lines were grown at 37 °C in a humidified atmosphere of 5% CO2.
(§2) The growth-inhibitory effects against HeLa, Hep G2, MCF-7, FaDu, and A549 cancer cells and normal cell lines MCF 10A were determined by MTT assay. […] Cells were seeded in 96 well plates at a density of 1 × 10^4 cells per well and incubated for 24 h at 37 °C in a humidified atmosphere of 5% CO2. The cells were then incubated with various concentrations of drugs for 48 h in a 5% CO2 incubator at 37 °C. After treatment with 1 mg/mL 3-(4,5-dimethylthiazol-2-yl)-2,5-diphenyltetrazolium bromide (MTT) solution for 4 h, the formazan crystals were dissolved in 100 µL DMSO in each well. Plates were read on a microplate reader (Thermo Varioskan Flash 3001) at 490 nm. The experiment was performed in triplicate. The inhibitory concentration at 50% (IC50) was calculated based on concentration-inhibition relationships via regression using SPSS software (Version 17.0).
A general note: Formazan colour is commonly taken as a measure of viable cells.

Assay [2] has as its system Hep G2 (hepatocarcinoma cell line). In words: MTT cell viability assay, Hep G2. The format is cell-based. The following applies: Homo sapiens, HepG2, 48 h, read-out: Antiproliferative Activity IC50 ± SEM, Hep G2. The procedure:
as §1, §2

Assay [3] deals with MCF-7 (breast cancer cell line). In words: MTT cell viability assay, MCF-7. The format is cell-based. Particulars: Homo sapiens, MCF7, 48 h, read-out: Antiproliferative Activity IC50 ± SEM, MCF-7. The procedure:
as §1, §2

For assay [4], the system named is FaDu (head and neck squamous carcinoma cell line). The assay is described as follows: MTT cell viability assay, FaDu. Type of assay: cell-based, human. The following applies: for IC50: 48 h, MTT, read-out: Antiproliferative Activity IC50 ± SEM, FaDu; for SI: selectivity index: SI = IC50 (MCF 10A)/IC50 (FaDu). The procedure: as §1, §2
Assay [5] has as its system A549 (epithelial cancer cell line). In words: MTT cell viability assay, A549. Type of assay: cell-based. Particulars: Homo sapiens, 48 h, read-out: Antiproliferative Activity IC50 ± SEM, A549. The procedure: as §1, §2
Assay [6] relates to MCF 10A (normal mammary epithelial cell). The assay is described as follows: MTT cell viability assay, MCF 10A. Particulars: Homo sapiens, 48 h, normal cells, read-out: Antiproliferative Activity IC50 ± SEM, MCF 10A. The format is cell-based.
The test system of assay [7] is HeLa, Hep G2, MCF-7, FaDu, A549, MCF 10A. In words: MTT cell viability assay, summary over the cell line panel. Type of assay: cell-based, human. The following applies: Homo sapiens, 48 h, span over the cell lines, read-out: IC50 range over tested cell lines. The procedure: as §1, §2

For orientation: IC50 means the concentration needed to halve the response being measured.

Read-outs that look alike come from different tables or passages of the source.

As for `Cc1nc(C)c(CN(CCCCCCCCCCCCN(Cc2nc(C)c(C)nc2C)Cc2nc(C)c(C)nc2C)Cc2nc(C)c(C)nc2C)nc1C` [Compound 6g, N^1,N^1,N^12,N^12-Tetrakis((3,5,6-Trimethylpyrazin-2-yl)Methyl)Dodecane-1,12-Diamine], the IC50 in assay [1] is 7.89 ± 0.86 µM; in assay [2], 9.62 ± 0.11 µM; in assay [3] it was 9.83 ± 0.17 µM; in assay [4] (Homo sapiens, FaDu), 6.8 ± 0.05 µM; in assay [5], 9.23 ± 0.16 µM; in assay [6], 6.57 ± 0.3 µM. Further, the IC50 in assay [7] was 6.57 to 20.8 µM. The “SI: selectivity index” value in assay [4] is given as 0.97.
`COc1ccc(/C=C/C(=O)NCCCCCCCCCCNC(=O)/C=C/c2ccc(OC)c(O)c2)cc1O` [Compound 26e, (2E,2′E)-N,N′-(Decane-1,10-Diyl)Bis(3-(3-Hydroxy-4-Methoxyphenyl)Acrylamide)]: the half-maximal inhibitory concentration (IC50) in assay [1] is above 20 µM; in assay [2], above 20 µM; in assay [3] it was above 20 µM; in assay [4] (Homo sapiens, FaDu) it was above 20 µM; in assay [5] it was above 20 µM; in assay [6] it was above 20 µM.
Consider `Cc1nc(C)c(C(=O)NCCCCCCCCCCCCNC(=O)c2nc(C)c(C)nc2C)nc1C` [Compound 8f, N,N′-(Dodecane-1,12-Diyl)Bis(3,5,6-Trimethylpyrazine-2-Carboxamide)], for which the IC50 is 4.96 ± 1.62 µM in assay [1]; above 20 µM in assay [2]; 0.158 ± 0.009 µM in assay [3]; 0.174 ± 0.01 µM in assay [4] (Homo sapiens, FaDu); 2.46 ± 0.05 µM in assay [5]; 0.051 ± 0.021 µM in assay [6]. Also, the “SI: selectivity index” value in assay [4] was determined as 0.29.
In the case of `Cc1nc(C)c(CN(CCCCN(Cc2nc(C)c(C)nc2C)Cc2nc(C)c(C)nc2C)Cc2nc(C)c(C)nc2C)nc1C` [Compound 6c, N^1,N^1,N^4,N^4-Tetrakis((3,5,6-Trimethylpyrazin-2-yl)Methyl)Butane-1,4-Diamine], the IC50 was above 100 µM in assay [1]; above 100 µM in assay [2]; above 100 µM in assay [3]; above 100 µM in assay [4] (Homo sapiens, FaDu); above 100 µM in assay [5]; above 100 µM in assay [6].
With `Cc1nc(C)c(C)nc1C` [TMP, 2,3,5,6-tetramethylpyrazine, reference compound], the IC50 was above 100 µM in assay [1]; above 100 µM in assay [2]; above 100 µM in assay [3]; above 100 µM in assay [4] (Homo sapiens, FaDu); above 100 µM in assay [5]; above 100 µM in assay [6].
As for `O=C(/C=C/c1ccccc1)OCCOCCOCCOCCOC(=O)/C=C/c1ccccc1` [Compound 9m, ((Oxybis(Ethane-2,1-Diyl))Bis(Oxy))Bis(Ethane-2,1-Diyl) (2E,2′E)-bis(3-Phenylacrylate)], the IC50 was above 20 µM in assay [1]; above 20 µM in assay [2]; above 20 µM in assay [3]; above 20 µM in assay [4] (Homo sapiens, FaDu); above 20 µM in assay [5]; above 20 µM in assay [6].
As for `Cc1nc(C)c(CN(CCO)Cc2nc(C)c(C)nc2C)nc1C` [Compound 6i, 2-(Bis((3,5,6-Trimethylpyrazin-2-yl)Methyl)Amino)Ethanol], the IC50 in assay [1] is above 100 µM; in assay [2], above 100 µM; in assay [3] it was above 100 µM; in assay [4] (Homo sapiens, FaDu), above 100 µM; in assay [5] it was above 100 µM; in assay [6], above 100 µM.
As to `Cc1nc(C)c(CN(CCCCCCN(Cc2nc(C)c(C)nc2C)Cc2nc(C)c(C)nc2C)Cc2nc(C)c(C)nc2C)nc1C` [Compound 6d, N^1,N^1,N^6,N^6-Tetrakis((3,5,6-Trimethylpyrazin-2-yl)Methyl)Hexane-1,6-Diamine], the IC50 in assay [1] was above 100 µM; in assay [2] it was above 100 µM; in assay [3] it was above 100 µM; in assay [4] (Homo sapiens, FaDu) it was above 100 µM; in assay [5] it was above 100 µM; in assay [6], above 100 µM.
Consider `O=C(/C=C/c1ccc(Cl)cc1)NCCCCCCCCCCNC(=O)/C=C/c1ccc(Cl)cc1` [Compound 25e, (2E,2′E)-N,N′-(Decane-1,10-Diyl)Bis(3-(4-Chlorophenyl)Acrylamide)], for which the IC50 in assay [1], in assay [2], in assay [3], in assay [5] and in assay [6] was above 20 µM each time. The “SI: selectivity index” value in assay [4] is recorded as above 357.14.
Take `COc1cc(OC)cc(C(=O)NCCCCCCCCCCNC(=O)c2cc(OC)cc(OC)c2)c1` [Compound 33e, N,N′-(Decane-1,10-Diyl)Bis(3,5-Dimethoxybenzamide)]: the IC50 is above 20 µM in assay [1]; above 20 µM in assay [2]; above 20 µM in assay [3]; 10.4 ± 0.949 µM in assay [4] (Homo sapiens, FaDu); above 20 µM in assay [5]; above 20 µM in assay [6]. Further, the “SI: selectivity index” value in assay [4] is above 1.92.
With `COc1cc(/C=C/C(=O)NCCCCCCCCCCNC(=O)/C=C/c2cc(OC)c(OC)c(OC)c2)cc(OC)c1OC` [Compound 29e, (2E,2′E)-N,N′-(Decane-1,10-Diyl)Bis(3-(3,4,5-Trimethoxyphenyl)Acrylamide)], the IC50 is above 20 µM in assay [1]; above 20 µM in assay [2]; above 20 µM in assay [3]; 5.07 ± 0.461 µM in assay [4] (Homo sapiens, FaDu); above 20 µM in assay [5]; above 20 µM in assay [6]. In addition, the “SI: selectivity index” value in assay [4] was above 3.95.
As to `O=C(/C=C/c1ccccc1)OCCCCCCCCCCOC(=O)/C=C/c1ccccc1` [Compound 9h, Decane-1,10-Diyl (2E,2′E)-Bis(3-Phenylacrylate)], the IC50 in assay [1] is above 20 µM; in assay [2], above 20 µM; in assay [3], above 20 µM; in assay [4] (Homo sapiens, FaDu) it was above 20 µM; in assay [5], above 20 µM; in assay [6], above 20 µM.
With `O=C(/C=C/c1ccccc1)OCCCCCCCCOC(=O)/C=C/c1ccccc1` [Compound 9g, Octane-1,8-Diyl (2E,2′E)-Bis(3-Phenylacrylate)], the IC50 in assay [1] is above 20 µM; in assay [2] it was above 20 µM; in assay [3], above 20 µM; in assay [4] (Homo sapiens, FaDu) it was above 20 µM; in assay [5], above 20 µM; in assay [6], above 20 µM.
With `O=C(NCCCCCCCCCCNC(=O)c1ccc2cc[nH]c2c1)c1ccc2cc[nH]c2c1` [Compound 24e, N,N′-(Decane-1,10-Diyl)Bis(1H-Indole-6-Carboxamide)], the IC50 in assay [1] was above 20 µM; in assay [2], above 20 µM; in assay [3], above 20 µM; in assay [4] (Homo sapiens, FaDu) it was 5.3 ± 0.366 µM; in assay [5], above 20 µM; in assay [6] it was above 20 µM. In addition, the “SI: selectivity index” value in assay [4] was above 3.78.
For the molecule `O=C(/C=C/c1ccccc1)OCCCCCCCCCCCCOC(=O)/C=C/c1ccccc1` [Compound 9i, Dodecane-1,12-Diyl (2E,2′E)-Bis(3-Phenylacrylate)], the IC50 in assay [1] was above 20 µM; in assay [2], above 20 µM; in assay [3] it was above 20 µM; in assay [4] (Homo sapiens, FaDu) it was above 20 µM; in assay [5], above 20 µM; in assay [6], above 20 µM.
Consider `Cn1cc(C(=O)NCCCCCCCCCCNC(=O)c2cn(C)c3ccccc23)c2ccccc21` [Compound 23e, N,N′-(Decane-1,10-Diyl)Bis(1-Methyl-1H-Indole-3-Carboxamide)], for which the IC50 is above 20 µM in assay [1]; above 20 µM in assay [2]; above 20 µM in assay [3]; below 1 µM in assay [4] (Homo sapiens, FaDu); 0.638 ± 0.089 µM in assay [4]; above 20 µM in assay [5]. Moreover, the IC50 in assay [6] is above 20 µM. The “SI: selectivity index” value in assay [4] is listed as above 31.35.
As to `Cc1nc(C)c(CN(CCN(Cc2nc(C)c(C)nc2C)Cc2nc(C)c(C)nc2C)Cc2nc(C)c(C)nc2C)nc1C` [Compound 6a, N^1,N^1,N^2,N^2-Tetrakis((3,5,6-Trimethylpyrazin-2-yl)Methyl)Ethane-1,2-Diamine], the IC50 in assay [1] was above 100 µM; in assay [2] it was above 100 µM; in assay [3], above 100 µM; in assay [4] (Homo sapiens, FaDu), above 100 µM; in assay [5], above 100 µM; in assay [6], 90.3 ± 3.41 µM.
